Measurements published in patent publication EP1180991B1, “GAMBOGIC ACID DERIVATIVES AS ACTIVATORS OF CASPASES AND INDUCERS OF APOPTOSIS” (Cytovia, Inc., priority 1999, dated 2000).
Where two headings read alike, the source gives them in different places.

Key:
[1] = system: T-47D; assay: Caspase cascade activation assay (Example 90); format: cell-based, human; details: T-47D, 24 h incubation
Description: (§1) Human breast cancer cell lines T-47D and ZR-75-1, human prostate cancer cell line PC-3, human leukemia cancer cell line HL-60 and human non-transformed fibroblast cell line MRC-5 cells were grown according to media component mixtures designated by The American Type Culture Collection + 10% FCS (Life Technologies, Inc.), in a 5% CO2 -95% humidity incubator at 37° C. T-47D, ZR-75-1 and PC-3 cells were maintained at a cell density between 30 and 80% confluency and for HL-60 at a cell density of 0.1 to 0.6 x 10^6 cells/ml. Cells were harvested at 600xg and resuspended at 0.65 x 10^6 cells/ml into appropriate media + 10% FCS. […] The samples were mixed by agitation and incubated at room temperature.
(§2) The EC50 (nM) was determined by a sigmoidal dose-response calculation (Prism 2.0, GraphPad Software Inc.). Caspase Activity and Potency

[2] = system: PC-3; assay: Caspase cascade activation assay (Example 90); format: cell-based, human; details: PC-3, 24 h incubation
Description: as §1, §2

[3] = system: MRC-5; assay: Caspase cascade activation assay (Example 90); format: cell-based, human; details: Homo sapiens, MRC5; MRC-5 non-transformed fibroblasts; caspase activation, 24 h incubation; read-out: EC50
Description: as §1, §2

[4] = system: ZR-75-1; assay: Caspase cascade activation assay (Example 90); format: cell-based, human; details: Homo sapiens; ZR-75-1; caspase activation, 24 h incubation; read-out: EC50
Description: as §1, §2

[5] = system: several cancer cell lines; details: cited from earlier work
[6] = system: PC-3; assay: Caspase cascade activation by known antineoplastic compounds (Example 92); details: Homo sapiens, PC-3, 24 h, read-out: ratio of the net RFU value for test compounds to that of control samples (caspase cascade activation)
Description: (§5) The samples were mixed by agitation and then incubated at 37° C for 24 h in a 5% CO2-95% humidity incubator. […] The samples were mixed by agitation and incubated for 3 h at room temperature. […] After the 3 h incubation, the samples were read for fluorescence as above (T = 3 h).
(§6) The Relative Fluorescence Unit values (RFU) were used to calculate the sample readings as follows: RFU(T=3⁢hr) −Control RFU(T=0) = Net RFU(T=3⁢hr) [formula]
(§7) The activity in caspase cascade activation was determined by the ratio of the net RFU value for test compounds to that of control samples.

[7] = system: T-47D; assay: as above; details: Homo sapiens, T47D, 24 h, read-out: ratio of the net RFU value for test compounds to that of control samples (caspase cascade activation)
Description: as §5, §6, §7

[8] = system: KB-V1; details: Lin et al. 1993; cited from earlier work
[9] = system: KB; details: Lin et al. 1993; cited from earlier work
[10] = system: T47D cells; assay: PARP cleavage, western blot (Example 98); format: cell-based, human; details: 1 µM, 2 h and 4 h (Fig. 5C)
Description: (§3) Cleavage of the enzyme poly(ADP)ribose polymerase (PARP) by caspase-3 and related proteases is considered to be one of the molecular hallmarks of caspase-mediated apoptosis. Therefore, the ability of gambogic acid to induce PARP cleavage in four different human tumor cell lines (Jurkat cells, HL-60 cells, T47D cells and PC3 cells) was determined.
(§4) […] Control cultures were treated with a drug vehicle (DMSO), or the well-characterized apoptosis inducer, staurosporine. At the end of the apoptosis induction period, the cells were harvested, washed once with PBS, quick-frozen on dry ice, and stored at -80° C. The cells were then lysed in a standard immunoblotting lysis buffer and samples of the lysates were electrophoresed on 4% to 20% gradient polyacrylamide gels. The proteins in the gels were then transferred to PVDF membranes and probed with a commercially-available rabbit polyclonal antibody to PARP.

[11] = system: PC3 cells; assay: PARP cleavage, western blot (Example 98); format: cell-based, human; details: 1 µM, 2 h and 4 h (Fig. 5D)
Description: as §3, §4

[12] = 0.16 to 10 µM final, net RFU ratio to control

COC(=O)/C(C)=C\CC12OC(C)(C)C3CC(C=C4C(=O)c5c(OC)c6c(c(CC=C(C)C)c5OC431)OC(C)(CCC=C(C)C)C=C6)C2=O (centres unmarked) [Example 6, Methyl-6-methoxy-gambogate]
caspase activity (Ratio) [1, 12]: 12.0
caspase activity (Ratio) [2, 12]: 4.5

COc1c2c(c(CC=C(C)C)c3c1C(=O)C1=CC4CC5C(C)(C)OC(C/C=C(/C)C(=O)N6CCCCC6)(C4=O)C15O3)OC(C)(CCC=C(C)C)C=C2 (centres unmarked) [Example 7, 6-Methoxy-gambogyl Piperidine]
EC50 ([1]; Homo sapiens, T47D, caspase activation, read-out: EC50): 0.83 µM
EC50 [3]: 1.2 µM
EC50 [4]: 1.65 µM
EC50 ([2]; Homo sapiens, caspase activation, read-out: EC50): 1.7 µM

CC(C)=CCc1c2c(c(O)c3c1OC14C(=CC5CC1C(C)(C)OC4(C/C=C(/C)C(=O)O)C5=O)C3=O)C=CC(C)(C)O2 (centres unmarked) [Example 19, Morellic Acid]
cytotoxicity ([5]; several cancer cell lines, Cao et al. 1998): significant cytotoxicity

CN(Cc1cnc2nc(N)nc(N)c2n1)c1ccc(C(=O)N[C@@H](CCC(=O)O)C(=O)O)cc1 [Methotrexate]
fold induction at 10 µM [6]: 0.7
fold induction at 10 µM [7]: 0.8

CC(=O)O[C@H]1C(=O)[C@@]2(C)[C@H]([C@H](OC(=O)c3ccccc3)[C@]3(O)C[C@H](OC(=O)[C@H](O)[C@@H](NC(=O)c4ccccc4)c4ccccc4)C(C)=C1C3(C)C)[C@]1(OC(C)=O)CO[C@@H]1C[C@@H]2O [Taxol]
fold induction at 10 µM [6]: 0.7
fold induction at 10 µM [7]: 0.9

CC[C@]1(O)C[C@@H]2CN(CCc3c([nH]c4ccccc34)[C@@](C(=O)OC)(c3cc4c(cc3OC)N(C)[C@H]3[C@@](O)(C(=O)OC)[C@H](OC(C)=O)[C@]5(CC)C=CCN6CC[C@]43[C@@H]65)C2)C1 [Vinblastine]
fold induction at 10 µM [6]: 0.8
fold induction at 10 µM [7]: 0.9

CC(C)=CCc1c(O)cc(O)c2c1O[C@]13C(=C[C@@H]4C[C@H]1C(C)(C)O[C@@]3(CC=C(C)C)C4=O)C2=O [forbesione, reference compound]
cytotoxicity [5]: significant cytotoxicity

CC(C)=CCc1c2c(c(O)c3c1OC14C(=CC5CC1C(C)(C)OC4(C/C=C(\C)CO)C5=O)C3=O)C=CC(C)(C)O2 (centres unmarked) [isomorellinol, reference compound]
cytotoxicity [8]: cytotoxic
cytotoxicity [9]: cytotoxic

CN[C@@H]1C[C@H]2O[C@@](C)([C@@H]1OC)n1c3ccccc3c3c4c(c5c6ccccc6n2c5c31)C(=O)NC4 [staurosporine, reference compound]
PARP cleavage [10]: no cleavage of PARP
PARP cleavage [11]: no cleavage of PARP

Isogambogic Acid [Example 18]
cytotoxicity [8]: cytotoxic
cytotoxicity [9]: cytotoxic
